What was measured:
[1] = system: A431 human squamous cell carcinoma; test: Labelling of nuclear and cytoplasmic DNA or RNA in live cells; format: cell-based; conditions: conjugate 50 μg/mL or Hoechst 33342 0.2 μg/mL, 15h
[2] = system: DNA threads mounted on a glass slide; test: Detection of DNA mounted on a glass slide by fluorescence microscopy; format: binding; conditions: DNA 0.3 μg/mL, final dye concentration 0.4 mg/mL, 50× objective, DAPI filter cube
Procedure: The DNA binding and enhanced detection ability were also observed using trace amounts of DNA mounted on a glass slide. In this experiment, a DNA solution was prepared in DI water at 0.3 μg/mL and was mixed with the QD-fluorescent dye conjugate nanoparticles (Ex. 1) or with the Hoechst 33342 only (control experiment) at a final dye concentration of 0.4 mg/mL. A 3 μL solution of each composition was mounted on a slide, smeared and let to dry. The slide was then observed under a fluorescence microscope (Olympus BX51) using 50× objective and a DAPI filter cube (UMWU2) and equipped with an Osram HBO50W/AC L1 Short arc mercury lamp as an excitation source. […] All the images were taken using the same microscopy settings. FIG. 6 indicates an enhanced ability to detect DNA on a glass slide (zoomed in to show DNA strands covered with Hoechst-QDs).

SMILES: CCOc1ccc(-c2nc3cc(-c4nc5cc(N6CCN(C)CC6)ccc5[nH]4)ccc3[nH]2)cc1.Cl.Cl.Cl [Hoechst 33342, 2′-(4-ethoxyphenyl)-5-(4-methyl-1-piperazinyl)-2,5′-bi-1H-benzimidazole trihydrochloride]
- labelling of cells (fluorescence microscopy) [1]: the nuclei were stained but without the ability to detect cell-cell communication
- detection of DNA threads on glass slide [2]: almost no signal was observed
